Patent publication US10053455B2, “Diazaspiroalkaneone-substituted oxazole derivatives as spleen tyrosine kinase inhibitors” (AB SCIENCE, priority 2014, dated 2018)

Assays:
SYK kinase = SYK kinase (Homo sapiens (Human), UniProt P43405); test: In vitro SYK inhibition assay (HTRF kinase assay); format: biochemical; conditions: read-out: Syk (IC50)
Procedure: SYK kinase was purified as a full length protein in a baculovirus system near homogeneity. All kinase assays were performed with the Kinase TK (tyrosine kinase) HTRF (Homogeneous Time Resolved Fluorescence) assay developed by Cisbio international. […] Reactions were initiated upon introduction of the enzyme and terminated with the addition of one reaction volume (25 μl) of HTRF detection buffer. Plates were incubated for one hour at room temperature and the time resolved Fluorescence resonance energy transfer signal was measured in a Pherastar FS microplate reader (BMG Labtech).
Most of the kinases tested in this study were cloned, expressed and purified in the facilities of the inventors. They were expressed either as N-terminus hexahistidine-, hexahistidine-asparagine- or GST-tagged enzymes in a baculovirus or in a Colibacille expression system. Remaining enzymes (JAKs) were purchased from Millipore or Proqinase. For each enzyme, steady state kinetic parameters were determined and validated with known inhibitors.
The analysis of the effect of compounds on kinase activity was assessed with the HTRF® KinEASE assay (Cisbio International), an immuno-assay based on the quantification of the level of phosphorylation of a biotinylated peptide substrate using anti-phospho-specific antibody labeled with Europium (Eu^3+) cryptate. This assay comprises two steps: —an enzymatic step, during which the peptide substrate, the kinase, ATP, Mg^2+ and/or Mn^2+ are incubated with varying concentration of drug (from 0 to 10 μM); —a detection step, at the end of the reaction (stopped by addition of EDTA which chelates Mg^2+), the antibody anti-phospho peptide-Eu^3+ (emission 620 nm) and streptavidin XL-665 (emission 665 nm) are added to the reaction mix. After incubation, the obtained signal is proportional to the concentration of phosphorylated peptide in the sample. All measurements were performed on a BMG Labtech Pherastar FS apparatus. Results are expressed in delta fluorescence (DF) unit defined as follow DF %=[(ratio−ratio blank)/(ratio blank)]*100, where ratio=(665 nm/620 nm)*10^4. Each experiment was performed in duplicate and repeated two or three times.

[1] = tested on: Salmonella typhimurium strain TA98; test: AMES mutagenic assay, TA98 strain
Procedure: Mutagenic activity of test compounds and their metabolites (produced by rat liver S9 fraction) was evaluated in the Salmonella typhimurium strains TA100 and TA98 according to the Ames assay (Toxicology in vitro, (2001), 15: 105-114). […] The results are expressed as a mutagenicity ratio in comparison to solvent controls.
The results are expressed as a ratio of the number of colonies over the number of colonies in the negative control (DMSO).

Row | Compound | IC50 (SYK kinase) | other results
1 | O=C1NCCN(c2ncc(-c3cccc(Nc4nccs4)c3)o2)C12CC2 [Compound 022, 4-{5-[3-(Thiazol-2-ylamino)-phenyl]-oxazol-2-yl}-4,7-diaza-spiro[2.5]octan-8-one] | < 500 nM | 
2 | Cc1ccnc(Nc2cccc(-c3cnc(N4CCNC(=O)C45CC5)o3)c2C)n1 [Compound 020, 4-{5-[2-Methyl-3-(4-methyl-pyrimidin-2-ylamino)-pheny]-oxazol-2-yl}-4,7-diaza-spiro[2.5]octan-8-one] | > 2000 nM | 
3 | O=C1NCCN(c2ncc(-c3cc(Nc4nccc(C(F)(F)F)n4)ccc3OCCN3CCOCC3)o2)C12CC2 [Compound 017, 4-{5-[2-(2-Morpholin-4-yl-ethoxy)-5-(4-trifluoromethyl-pyrimidin-2-ylamino)-phenyl]-oxazol-2-yl}-4,7-diaza-spiro[2.5]octan-8-one] | < 500 nM | 
4 | CC(C)c1ccnc(Nc2cccc(-c3cnc(N4CCNC(=O)C45CCC5)o3)c2)n1 [Compound 011, 5-{5-[3-(4-Isopropyl-pyrimidin-2-ylamino)-phenyl]-oxazol-2-yl}-5,8-diaza-spiro[3.5]non-9-one] | < 500 nM | 
5 | O=C1NCCN(c2ncc(-c3cccc(Nc4nccc(C(F)(F)F)n4)c3)o2)C12CCC2 [Compound 016, 5-{5-[3-(4-Trifluoromethyl-pyrimidin-2-ylamino)-phenyl]-oxazol-2-yl}-5,8-diaza-spiro[3.5]nonan-9-one] | < 500 nM | 
6 | Cc1ccnc(Nc2cccc(-c3cnc(N4CCNC(=O)C45CCCC5)o3)c2)n1 [Compound 009, 6-{5-[3-(4-Methyl-pyrimidin-2-ylamino)-phenyl]-oxazol-2-yl}-6,9-diaza-spiro[4.5]decan-10-one] | < 500 nM | 
7 | O=C1NCCN(c2ncc(-c3cccc(Nc4nccc(-c5cccs5)n4)c3)o2)C12CC2 [Compound 015, 4-{5-[3-(4-Thiophen-2-yl-pyrimidin-2-ylamino)-phenyl]-oxazol-2-yl}-4,7-diaza-spiro[2.5]octan-8-one] | < 500 nM | 
8 | CCc1ccnc(Nc2cccc(-c3cnc(N4CCNC(=O)C45CC5)o3)c2)n1 [Compound 007, 4-{5-[3-(4-Ethyl-pyrimidin-2-ylamino)-phenyl]-oxazol-2-yl}-4,7-diaza-spiro[2.5]octan-8-one] | < 500 nM | 
9 | N#Cc1ccnc(Nc2cccc(-c3cnc(N4CCNC(=O)C45CC5)o3)c2)n1 [Compound 002, 2-{3-[2-(8-Oxo-4,7-diaza-spiro[2.5]oct-4-yl)-oxazol-5-yl]-phenylamino}-pyrimidine-4-carbonitrile] | < 500 nM | 
10 | Cc1ccnc(Nc2cccc(-c3cnc(N4CCNC(=O)C45CC5)o3)c2)c1 [Compound 021, 4-{5-[3-(4-Methyl-pyridin-2-ylamino)-phenyl]-oxazol-2-yl}-4,7-diaza-spiro[2.5]octan-8-one] | 500 to 2000 nM | 
11 | O=C1NCCN(c2ncc(-c3cc(Nc4nccc(-c5cccs5)n4)ccc3OCCN3CCOCC3)o2)C12CC2 [Compound 004, 4-{5-[2-(2-Morpholin-4-yl-ethoxy)-5-(4-thiophen-2-yl-pyrimidin-2-ylamino)-phenyl]-oxazol-2-yl}-4,7-diaza-spiro[2.5]octan-8-one] | < 500 nM | 
12 | Cc1ccnc(Nc2ccc(F)c(-c3cnc(N4CCNC(=O)C45CC5)o3)c2)n1 [Compound 018, 4-{5-[2-Fluoro-5-(4-methyl-pyrimidin-2-ylamino)-phenyl]-oxazol-2-yl}-4,7-diaza-spiro[2.5]octan-8-one] | < 500 nM | 
13 | O=C1NCCN(c2ncc(-c3cccc(Nc4nccc(N5CCOCC5)n4)c3)o2)C12CC2 [Compound 014, 4-{5-[3-(4-Morpholin-4-yl-pyrimidin-2-ylamino)-phenyl]-oxazol-2-yl}-4,7-diaza-spiro[2.5]octan-8-one] | > 2000 nM | 
14 | CC(C)c1ccnc(Nc2cccc(-c3cnc(N4CCNC(=O)C45CC5)o3)c2)n1 [Compound 013, 4-{5-[3-(4-Isopropyl-pyrimidin-2-ylamino)-phenyl]-oxazol-2-yl}-4,7-diaza-spiro[2.5]octan-8-one] | < 500 nM | 
15 | O=C1NCCN(c2ncc(-c3cccc(Nc4nccc(C(F)(F)F)n4)c3)o2)C12CC2 [Compound 008, 4-{5-[3-(4-Trifluoromethyl-pyrimidin-2-ylamino)-phenyl]-oxazol-2-yl}-4,7-diaza-spiro[2.5]octan-8-one] | < 500 nM | 
16 | Cc1ccnc(Nc2cc(CN3CCOCC3)cc(-c3cnc(N4CCNC(=O)C45CC5)o3)c2)n1 [Compound 006, 4-{5-[3-(4-Methyl-pyrimidin-2-ylamino)-5-morpholin-4-ylmethyl-phenyl]-oxazol-2-yl}-4,7-diaza-spiro[2.5]octan-8-one] | < 500 nM | 
17 | O=C1NCCN(c2ncc(-c3cccc(Nc4nccc(-c5ccccc5)n4)c3)o2)C12CC2 [Compound 010, 4-{5-[3-(4-Phenyl-pyrimidin-2-ylamino)-phenyl]-oxazol-2-yl}-4,7-diaza-spiro[2.5]octan-8-one] | < 500 nM | 
18 | O=[N+]([O-])c1ccc2c(c1)Cc1ccccc1-2 [Compound 2-NF, 2-Nitrofluorene, reference compound] |  | Mean revertant colony counts ([1]; Salmonella typhimurium, 0.25 μg per well): 59.7; Ratio treated/solvent ([1]; TA98, absence of S-9, 0.25 μg per well (positive control)): 13.8
19 | O=C1NCCN(c2ncc(-c3cc(CN4CCOCC4)cc(Nc4nccc(C(F)(F)F)n4)c3)o2)C12CC2 [Compound 003, 4-{5-[3-Morpholin-4-ylmethy1-5-(4-trifluoromethyl-pyrimidin-2-ylamino)-phenyl]-oxazol-2-yl}-4,7-diaza-spiro[2.5]octan-8-one] | < 500 nM | 
20 | Cc1cc(Nc2nccc(C(F)(F)F)n2)cc(-c2cnc(N3CCNC(=O)C34CC4)o2)c1 [Compound 005, 4-{5-[3-Methy1-5-(4-trifluoromethyl-pyrimidin-2-ylamino)-phenyl]-oxazol-2-yl}-4,7-diaza-spiro[2.5]octan-8-one] | < 500 nM | 
21 | Cc1ccnc(Nc2cccc(-c3cnc(N4CCNC(=O)C45CCC5)o3)c2)n1 [Compound 012, 5-{5-[3-(4-Methyl-pyrimidin-2-ylamino)-phenyl]-oxazol-2-yl}-5,8-diaza-spiro[3.5]nonan-9-one] | < 500 nM | 
